Results as given in patent US20050004193A1, “Pharmaceutical combination for the prevention or treatment of cardiovascular, cardiopulmonary, pulmonary, or renal diseases” (Boehringer Ingelheim International GmbH, priority 2003, published 2005).
Values joined by “and” are separate entries in the source; they are usually repeats but may differ in a detail not shown here. Identical values can stand only once. One block for each compound: values may come before it.

Assays:
[1] = target: T1, human PPARgamma-ligand binding domain (LBD) (Homo sapiens, UniProt P37231); experiment: SPA assay: displacement of 3H-labeled rosiglitazone from PPARgamma-LBD; details: for MW (SPA signal, bound 3H-rosiglitazone): NSB 217, Bmax 911; for displacement of the radioactive rosiglitazone from the binding pocket: very large excesses of test substance
T1 sequence (P37231 205-505): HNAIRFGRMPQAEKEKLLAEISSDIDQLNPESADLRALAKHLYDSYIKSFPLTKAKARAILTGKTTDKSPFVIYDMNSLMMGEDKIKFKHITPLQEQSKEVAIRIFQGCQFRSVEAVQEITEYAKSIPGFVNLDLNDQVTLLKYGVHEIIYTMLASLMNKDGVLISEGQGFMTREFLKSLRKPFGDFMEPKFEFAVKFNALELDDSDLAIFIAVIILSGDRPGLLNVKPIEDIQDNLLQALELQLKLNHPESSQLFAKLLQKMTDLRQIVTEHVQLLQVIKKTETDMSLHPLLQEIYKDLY
T1 sequence (P19793 220-461 partner limits assumed): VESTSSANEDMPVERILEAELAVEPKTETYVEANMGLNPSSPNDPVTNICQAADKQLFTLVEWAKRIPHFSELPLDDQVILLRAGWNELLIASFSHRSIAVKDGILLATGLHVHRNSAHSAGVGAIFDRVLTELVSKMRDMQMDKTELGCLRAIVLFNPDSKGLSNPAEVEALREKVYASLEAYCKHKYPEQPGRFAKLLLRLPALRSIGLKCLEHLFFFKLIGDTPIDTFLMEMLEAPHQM
Experimental: Protein containing the human PPARgamma-ligand binding domain (LBD) is prepared as a GST fusion protein in E. coli and purified by affinity chromatography. To do this, a DNA section which codes for the amino acids 205-505 of the human PPARgamma2 transcription factor (cf. Genbank entry U79012) is subcloned via the additionally inserted restriction cutting sites BamH I and Xho I into the expression vector pGEX4T-I (Amersham) and the sequence of the section is monitored. […] The bacteria are pelleted after the induction and frozen in batches in PBS, pH 7.4. After opening up in a French Press, the dissolved GST-PPARgamma-LBD-fusion protein is purified using a GSTrap column (Pharmacia). Elution is carried out by the addition of 20 mM reduced glutathione. The GST-PPARgamma-LBD-protein fractions are desalinated using a HiTrap desalting column (Pharmacia) and the protein concentration is determined using a standard assay. Protein containing the human RXRalpha ligand binding domain (LBD) is prepared as a His tag fusion protein in E. coli and purified by affinity chromatography. To do this, a DNA section which codes for the amino acids 220-461 of the human RXRalpha transcription factor (cf. Genbank entry NM_002957, nt 729-1457) is subcloned via the additionally introduced restriction cutting sites BamH I and Not I into the expression vector pET28c (Novagen) and the sequence of the section is monitored. The fusion protein is expressed in the E. […] The bacteria are pelleted after the expression and frozen in batches in PBS, pH 7.4. After opening up in a French Press, the dissolved His-RXRalpha-LBD-fusion protein is purified using a HiTrap chelating column (Pharmacia). Elution is carried out using a 500 mM imidazole step. The His-RXRalpha-LBD protein fractions are desalinated using a HiTrap desalting column (Pharmacia) and the protein concentration is determined using a standard assay. A description of the SPA assay format can be found in R. Mukherjee et al., J Steroid Biochem Mol Biol (2002) 81:217-225.

[2] = target: T2, human PPARgamma-ligand binding domain (LBD) (Homo sapiens, UniProt P37231); experiment: AlphaScreen: recruiting of CBP LXXLL peptide by GST-PPARgamma-LBD; assay type: biochemical; details: for direct activation of the PPARgamma-LBD / recruiting of the LXXLL peptide: concentrations of up to 50 μM
T2 construct: codes for the amino acids 205-505 of the human PPARgamma2 transcription factor; made in house; host or cells: E. coli BL21(DE3), vector pGEX4T-1
T2 sequence (P37231 205-505): T1 sequence (P37231 205-505)
Experimental: Protein containing the human PPARgamma-ligand binding domain (LBD) is prepared as a GST fusion protein in E. coli and purified by affinity chromatography. […] The fusion protein is expressed in the E. coli strain BL21(DE3) recommended for pGEX vectors after induction with 0.2 mM IPTG for 4 hours at 25° C. The bacteria are pelleted after the induction and frozen in batches in PBS, pH 7.4. After opening up in a French Press, the dissolved GST-PPARgamma-LBD-fusion protein is purified using a GSTrap column (Pharmacia). Elution is carried out by the addition of 20 mM reduced glutathione. The GST-PPARgamma-LBD-protein fractions are desalinated using a HiTrap desalting column (Pharmacia) and the protein concentration is determined using a standard assay.
The assay buffer consists of 25 mM Hepes pH7.4, 100 mM NaCl, 1 mM DTT, 0.1% Tween-20, and 0.1% BSA. […] The final DMSO concentration in the assay is 1% (v/v). A 1% DMSO solution is used as the background control (NSB). The measurement is done using a Packard fusion measuring device.

[3] = target: T3, fusion protein of ligand binding domain of human PPARgamma2 transcription factor and yeast GAL4 DNA binding domain (Homo sapiens, UniProt P37231); experiment: Luciferase activity in stably transformed PPARgamma reporter cell line (CHO-K1 clone 11); assay type: cell-based
T3 construct: codes for amino acids 205-505 of the human PPARgamma2 transcription factor; expressed in transfected cells
T3 sequence (P37231 205-505): T1 sequence (P37231 205-505)

[4] = Dissolution of active substances from Tablet 3; assay type: physicochemical; details: Tablet 3, three batches
Excerpt: This combination of active substances and excipients is then compressed with a suitable tablet press (e.g., Korsch EKO or Fette P1200) to form tablets. […]

- MW (SPA signal, bound 3H-rosiglitazone) ([1]; conc. 1.00E-04 M): 510
- MW (SPA signal, bound 3H-rosiglitazone) ([1]; conc. 3.00E-07 M): 810
Compound: CCCCC1=NC2(CCCC2)C(=O)N1Cc1ccc(-c2ccccc2-c2nnn[nH]2)cc1 [Irbesartan]
- displacement of the radioactive rosiglitazone from the binding pocket [1]: no concentration-dependent displacement of the radioactive rosiglitazone
- direct activation of the PPARgamma-LBD / recruiting of the LXXLL peptide [2]: does not result in any direct activation of the PPARgamma-LBD

- MW (luciferase activity) ([3]; conc. 3.00E-07 M, 24 hours): 760 RLU
- MW (AlphaScreen signal) ([2]; conc. 3.00E-06 M): 720
Compound: CCCc1nc2c(C)cc(-c3nc4ccccc4n3C)cc2n1Cc1ccc(-c2ccccc2C(=O)O)cc1 [Telmisartan, 4′-[2-n-propyl-4-methyl-6-(1-methylbenzimidazol-2-yl)benzimidazol-1-ylmethyl]biphenyl-2-carboxylic acid]
- displacement of the radioactive rosiglitazone from the binding pocket [1]: no concentration-dependent displacement of the radioactive rosiglitazone
- activation of the PPARgamma pathway in the PPARgamma reporter cell line [3]: particularly potent activation of the PPARgamma pathway
- direct activation of the PPARgamma-LBD / recruiting of the LXXLL peptide [2]: does not result in any direct activation of the PPARgamma-LBD

- dissolution of telmisartan sodium salt from tablets ([4]; 900 mL of 0.1 M phosphate buffer, pH 7.5, 30 minutes stirring, 75 rpm): 92±1.5% and 96±1.8% and 100±1.0%
Compound: CCCc1nc2c(C)cc(-c3nc4ccccc4n3C)cc2n1Cc1ccc(-c2ccccc2C(=O)[O-])cc1.[Na+] [telmisartan sodium salt]

Compound: NS(=O)(=O)c1cc2c(cc1Cl)NCNS2(=O)=O [hydrochlorothiazide]
- dissolution of hydrochlorothiazide from tablets ([4]; 900 mL of 0.1 M HCl, 100 rpm, 30 minutes): 69±6.3% and 72±2.1% and 78±1.8%

Compound: CCCCc1nc(Cl)c(CO)n1Cc1ccc(-c2ccccc2-c2nn[nH]n2)cc1 [Losartan]
- displacement of the radioactive rosiglitazone from the binding pocket [1]: no concentration-dependent displacement of the radioactive rosiglitazone
- direct activation of the PPARgamma-LBD / recruiting of the LXXLL peptide [2]: does not result in any direct activation of the PPARgamma-LBD
